The text below walks through data of ChEMBL document CHEMBL5584245, “Structure-activity relationship of dual inhibitors containing maleimide and imidazole motifs against glutaminyl cyclase and glycogen synthase kinase-3β” (Bioorg Med Chem Lett, 2024).

Assay [1] concerns the target Glutaminyl-peptide cyclotransferase (Homo sapiens, UniProt Q16769). Briefly: Inhibition of glutaminyl cyclase (unknown origin).
Assay [2] has as its target Glycogen synthase kinase-3 beta (Homo sapiens, UniProt P49841). Briefly: Inhibition of GSK-3beta (unknown origin).

Sequence of Glycogen synthase kinase-3 beta (P49841 whole entry): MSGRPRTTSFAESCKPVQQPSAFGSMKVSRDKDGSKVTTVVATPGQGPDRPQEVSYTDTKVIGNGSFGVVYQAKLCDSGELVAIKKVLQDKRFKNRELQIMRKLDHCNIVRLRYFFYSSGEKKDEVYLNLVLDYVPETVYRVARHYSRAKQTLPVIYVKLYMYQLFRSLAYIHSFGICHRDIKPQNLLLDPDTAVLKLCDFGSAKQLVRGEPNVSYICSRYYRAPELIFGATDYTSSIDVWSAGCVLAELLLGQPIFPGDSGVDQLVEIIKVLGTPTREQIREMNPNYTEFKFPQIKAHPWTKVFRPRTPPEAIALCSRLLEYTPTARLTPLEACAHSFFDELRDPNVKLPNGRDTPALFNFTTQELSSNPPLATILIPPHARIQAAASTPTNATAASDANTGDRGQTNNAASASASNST
Sequence of Glutaminyl-peptide cyclotransferase (Q16769 whole entry): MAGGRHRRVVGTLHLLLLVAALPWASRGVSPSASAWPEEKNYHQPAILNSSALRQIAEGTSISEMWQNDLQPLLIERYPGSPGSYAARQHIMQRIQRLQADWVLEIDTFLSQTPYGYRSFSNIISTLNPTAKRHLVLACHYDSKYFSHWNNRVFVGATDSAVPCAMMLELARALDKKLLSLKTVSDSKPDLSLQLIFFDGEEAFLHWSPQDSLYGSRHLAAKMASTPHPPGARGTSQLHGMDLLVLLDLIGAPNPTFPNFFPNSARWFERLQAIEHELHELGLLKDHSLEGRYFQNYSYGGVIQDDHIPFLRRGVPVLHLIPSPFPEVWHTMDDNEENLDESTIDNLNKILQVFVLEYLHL

For the compound `COc1cc(C2=C(c3cn(CCCn4cncc4C)c4ccccc34)C(=O)NC2=O)ccc1OCCCN1CCCCC1`, the results for the IC50 in assay [1] and in assay [2] were 1130 nM and 51 nM, respectively.
In the case of `Cc1cncn1CCCn1cc(C2=C(c3ccc(F)cc3)C(=O)NC2=O)c2ccccc21`, the values for the IC50 in assay [1] and in assay [2] were 3220 nM and 102 nM, respectively.
Consider `Cc1cncn1CCCn1cc(C2=C(c3ccc(OCCCN4CCCC4)cc3)C(=O)NC2=O)c2ccccc21`, for which the values for the IC50 in assay [1] and in assay [2] were 3920 nM and 162 nM, respectively.
On the same counts, the results for `COc1ccccc1C1=C(c2cn(CCCn3cncc3C)c3ccccc23)C(=O)NC1=O` are 1710 nM and 23 nM.
On the same counts, the results for `COc1cc(C2=C(c3cn(CCCn4cncc4C)c4ccccc34)C(=O)NC2=O)ccc1OCCCCN1CCCCC1` are 830 nM and 64 nM.
On the same counts, the results for `Cc1cncn1CCCn1cc(C2=C(c3ccc(OCCCn4ccnc4)cc3)C(=O)NC2=O)c2ccccc21` are 15000 nM and 104 nM.
`COc1ccc(C2=C(c3cn(CCCn4cncc4C)c4ccccc34)C(=O)NC2=O)cc1OC`: the results for the IC50 in assay [1] and in assay [2] were 4590 nM and 36 nM, respectively.
The like results for `Cc1cncn1CCCn1cc(C2=C(c3ccc(OCCCCn4ccnc4)cc3)C(=O)NC2=O)c2ccccc21` were, in that order, 11200 nM and 133 nM.
As for `Cc1cncn1CCCn1cc(C2=C(c3ccc(OCCCN4CCN(C)CC4)cc3)C(=O)NC2=O)c2ccccc21`, the IC50 (in general, the concentration that inhibits the measured activity by half) in assay [1] came to 1300 nM; in assay [2], 74 nM.
The like results for `Cc1cncn1CCCn1cc(C2=C(c3ccc(OCCCN4CCCCC4)cc3)C(=O)NC2=O)c2ccccc21` were, in that order, 1120 nM and 87 nM.
`Cc1cncn1CCCn1cc(C2=C(c3ccc(OCCCCc4ccccc4)cc3)C(=O)NC2=O)c2ccccc21`: the results for the IC50 in assay [1] and in assay [2] were 6990 nM and 192 nM, respectively.
`Cc1ccccc1C1=C(c2cn(CCCn3cncc3C)c3ccccc23)C(=O)NC1=O`: the IC50 in assay [1] came out at 1760 nM; in assay [2], 59 nM.
On the same counts, the results for `Cc1cncn1CCCn1cc(C2=C(c3ccc(OCCCCN4CCN(C)CC4)cc3)C(=O)NC2=O)c2ccccc21` are 3240 nM and 15 nM.
In the case of `COc1cc(C2=C(c3cn(CCCn4cncc4C)c4ccccc34)C(=O)NC2=O)ccc1OCCCN1CCOCC1`, the results for the IC50 in assay [1] and in assay [2] were 7020 nM and 89 nM, respectively.
As to `CCCOc1ccc(C2=C(c3cn(CCCn4cncc4C)c4ccccc34)C(=O)NC2=O)cc1`, the IC50 in assay [1] came to 20000 nM; in assay [2], 150 nM.
On the same counts, the results for `COc1cc(C2=C(c3cn(CCCn4cncc4C)c4ccccc34)C(=O)NC2=O)ccc1OCCCCc1ccccc1` are 26200 nM and 91 nM.
On the same counts, the results for `Cc1cncn1CCCn1cc(C2=C(c3ccc(OCCCc4ccccc4)cc3)C(=O)NC2=O)c2ccccc21` are 7970 nM and 182 nM.
In the case of `Cc1cncn1CCCn1cc(C2=C(c3ccccc3[N+](=O)[O-])C(=O)NC2=O)c2ccccc21`, the IC50 was 1220 nM in assay [1] and 2 nM in assay [2].
On the same counts, the results for `Cc1cncn1CCCn1cc(C2=C(c3ccc(OCCCN4CCN(c5ccccc5)CC4)cc3)C(=O)NC2=O)c2ccccc21` are 9550 nM and 197 nM.
On the same counts, the results for `Cc1cccc(C2=C(c3cn(CCCn4cncc4C)c4ccccc34)C(=O)NC2=O)c1` are 6230 nM and 103 nM.
Consider `Cc1cncn1CCCn1cc(C2=C(c3cc(F)c(F)cc3F)C(=O)NC2=O)c2ccccc21`, for which the IC50 in assay [1] stood at 2600 nM; in assay [2] it was 122 nM.
With `Cc1cncn1CCCn1cc(C2=C(c3cccc([N+](=O)[O-])c3)C(=O)NC2=O)c2ccccc21`, the IC50 in assay [1] came out at 6130 nM; in assay [2] it was 47 nM.
`COc1cccc(C2=C(c3cn(CCCn4cncc4C)c4ccccc34)C(=O)NC2=O)c1`: the half-inhibitory concentration (IC50) worked out at 6320 nM in assay [1] and 55 nM in assay [2].
On the same counts, the results for `COc1cc(C2=C(c3cn(CCCn4cncc4C)c4ccccc34)C(=O)NC2=O)ccc1OCCCc1ccccc1` are 18100 nM and 177 nM.
On the same counts, the results for `Cc1cncn1CCCn1cc(C2=C(c3cccc(F)c3)C(=O)NC2=O)c2ccccc21` are 10800 nM and 64 nM.
In the case of `Cc1cncn1CCCn1cc(C2=C(c3ccccc3)C(=O)NC2=O)c2ccccc21`, the IC50 in assay [1] turned out to be 2300 nM; in assay [2], 14 nM.
In the case of `COc1cc(C2=C(c3cn(CCCn4cncc4C)c4ccccc34)C(=O)NC2=O)ccc1OCCCCN1CCOCC1`, the IC50 in assay [1] was 13000 nM; in assay [2], 59 nM.
The like results for `Cc1cncn1CCCn1cc(C2=C(c3ccc([N+](=O)[O-])cc3)C(=O)NC2=O)c2ccccc21` were, in that order, 1890 nM and 161 nM.
The like results for `Cc1cncn1CCCn1cc(C2=C(c3ccc(OCCCCN4CCN(c5ccccc5)CC4)cc3)C(=O)NC2=O)c2ccccc21` were, in that order, 7630 nM and 200 nM.
On to `CCCCOc1ccc(C2=C(c3cn(CCCn4cncc4C)c4ccccc34)C(=O)NC2=O)cc1`, for which the IC50 in assay [1] amounted to 10200 nM; in assay [2], 53 nM.
Turning to `Cc1cncn1CCCn1cc(C2=C(c3ccc(OCCCCN4CCCC4)cc3)C(=O)NC2=O)c2ccccc21`, the figures for the IC50 in assay [1] and in assay [2] were 1080 nM and 93 nM, respectively.
On the same counts, the results for `Cc1cncn1CCCn1cc(C2=C(c3ccc(OCCCCN4CCCCC4)cc3)C(=O)NC2=O)c2ccccc21` are 2200 nM and 68 nM.
Regarding `Cc1cncn1CCCn1cc(C2=C(c3ccc(OCCCN4CCOCC4)cc3)C(=O)NC2=O)c2ccccc21`, the IC50 in assay [1] amounted to 1510 nM; in assay [2], 178 nM.
The like results for `Cc1cncn1CCCn1cc(C2=C(c3ccc(OCCCCN4CCOCC4)cc3)C(=O)NC2=O)c2ccccc21` were, in that order, 2210 nM and 57 nM.
The like results for `Cc1cncn1CCCn1cc(C2=C(c3ccccc3F)C(=O)NC2=O)c2ccccc21` were, in that order, 2760 nM and 29 nM.
